Measurements: BindingDB's records for doi:10.1016/s0960-894x(98)00290-x (3-Dimensional Pharmaceuticals, 1999)

What was measured:
[1] = Compound was tested in vitro for its ability to inhibit serine protease trypsin using benzoyl-Phe-Val-Arg-p-nitroanilide as substrate
[2] = Compound was tested in vitro for its ability to inhibit serine protease chymotrypsin using suc-Ala-Ala-Pro-Phe-p-nitroanilide as substrate

## Cc1cc(OCCCNC(=N)N)cc(OS(=O)(=O)c2ccccc2Cl)c1 [2-Chloro-benzenesulfonic acid 3-(3-guanidino-propoxy)-5-methyl-phenyl ester]
[1]
  Ki: 23 µM
[2]
  Ki: > 200 µM
